Source: US20230131899A1, “INHIBITORS OF MICROBIALLY INDUCED AMYLOID” (Axial Therapeutics, Inc., priority 2020, published 2023)
Where two headings read alike, the source gives them in different places.

Biological target: T1, human α-synuclein (Homo sapiens, UniProt P37840)
T1 construct: the full-length gene for untagged human α-synuclein was inserted; made in house; host or cells: E. coli BL21(DE3), plasmid derived from pT7 or pET11a
Assay: Cell-free Thioflavin T assay of α-synuclein aggregation (αSyn ThT Assay)
Type: biochemical
Conditions: αSyn 50 μM
How it was run: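 Inhibition is reported as 100% minus background-corrected ThT signal relative to vehicle wells, taken at 36, 47, 48 or 72 h or the last read. Reactions held 50 μM recombinant α-synuclein, 20-100 μM compound, 20-40 μM ThT and 1% DMSO. Incubation was at 37° C., shaken, with a glass bead.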

[1] = class symbol, compounds 100 μM, read-out: αSyn ThT Assay % inhibition, activity range
[2] = mean percent inhibition relative to DMSO control, compounds 100 μM, read-out: αSyn ThT Assay % inhibition
[3] = mean % inhibition of αSyn aggregation relative to DMSO control, compounds at 100 μM, read-out: αSyn ThT Assay % Inhibition
[4] = compounds at 100 μM, class symbol, read-out: αSyn ThT Assay % Inhibition (activity range)

| SMILES | inhibition at 100 µM [1] | inhibition at 100 µM [2] | inhibition at 100 µM [3] | inhibition at 100 µM [4] |
| --- | --- | --- | --- | --- |
| CCCN1CC(C(=O)O)n2c(c(-c3cccc(C(F)(F)F)c3)c(C(F)(F)c3cccc4ccccc34)cc2=O)S1(=O)=O (stereo not drawn) [Compound 138, 8-(difluoro(naphthalen-1-yl)methyl)-6-oxo-2-propyl-9-(3-(trifluoromethyl)phenyl)-3,4-dihydro-2H,6H-pyrido[1,2-e][1,2,5]thiadiazine-4-carboxylic acid 1,1-dioxide] | > 60% | 74% |  |  |
| O=C(O)C1CN(Cc2ccccc2)c2c(-c3cccc(C(F)(F)F)c3)c(C(F)(F)c3cccc4ccccc34)c(Br)c(=O)n21 (stereo not drawn) [Compound 155, 1-benzyl-6-bromo-7-(difluoro(naphthalen-1-yl)methyl)-5-oxo-8-(3-(trifluoromethyl)phenyl)-1,2,3,5-tetrahydroimidazo[1,2-a]pyridine-3-carboxylic acid] | 31 to 60% | 60% |  |  |
| O=C(O)C1CN(Cc2ccccc2)c2c(-c3cccc(C(F)(F)F)c3)c(Cc3cccc4ccccc34)cc(=O)n21 (stereo not drawn) [Compound 187, 1-benzyl-7-(naphthalen-1-ylmethyl)-5-oxo-8-(3-(trifluoromethyl)phenyl)-1,2,3,5-tetrahydroimidazo[1,2-a]pyridine-3-carboxylic acid] | 31 to 60% | 45% |  |  |
| CCNC(=O)c1c(Cc2cccc3ccccc23)c(-c2cccc(C(F)(F)F)c2)c2n(c1=O)C(C(=O)O)CN(C)S2(=O)=O (stereo not drawn) [Compound 156, 7-(ethylcarbamoyl)-2-methyl-8-(naphthalen-1-ylmethyl)-6-oxo-9-(3-(trifluoromethyl)phenyl)-3,4-dihydro-2H,6H-pyrido[1,2-e][1,2,5] thiadiazine-4-carboxylic acid 1,1-dioxide] | > 60% | 70% |  |  |
| O=C(O)C1CN(CC2CCCC2)c2c(-c3cccc(C(F)(F)F)c3)c(Cc3cccc4ccccc34)c(Cl)c(=O)n21 (stereo not drawn) [Compound 167, 6-chloro-1-(cyclopentylmethyl)-7-(naphthalen-1-ylmethyl)-5-oxo-8-(3-(trifluoromethyl)phenyl)-1,2,3,5-tetrahydroimidazo[1,2-a]pyridine-3-carboxylic acid] | 31 to 60% | 45% |  |  |
| CCCN1CC(C(=O)O)n2c(c(-c3cccc(C(F)(F)F)c3)c(Cc3cccc4ccccc34)c(O)c2=O)S1(=O)=O (stereo not drawn) [Compound 141, 7-hydroxy-8-(naphthalen-1-ylmethyl)-6-oxo-2-propyl-9-(3-(trifluoromethyl)phenyl)-3,4-dihydro-2H,6H-pyrido[1,2-e][1,2,5]thiadiazine-4-carboxylic acid 1,1-dioxide] | > 60% | 79% |  |  |
| O=C(O)C1CN(C[C@@H](O)CO)S(=O)(=O)c2c(-c3cccc(C(F)(F)F)c3)c(Cc3cccc4ccccc34)cc(=O)n21 (mixture of isomers) [Compound 065b, 2-((R)-2,3-dihydroxypropyl)-8-(naphthalen-1-ylmethyl)-6-oxo-9-(3-(trifluoromethyl)phenyl)-3,4-dihydro-2H,6H-pyrido[1,2-e][1,2,5]thiadiazine-4-carboxylic acid 1,1-dioxide] |  |  | 9% | -10 to 10% |
| O=C(O)C1n2c(c(-c3cccc(C(F)(F)F)c3)c(Cc3cccc4ccccc34)nc2=O)SC12CCCC2 (stereo not drawn) [Compound 053, 7′-(naphthalen-1-ylmethyl)-5′-oxo-8′-(3-(trifluoromethyl)phenyl)-3′H,5′H-spiro[cyclopentane-1,2′-thiazolo[3,2-c]pyrimidine]-3′-carboxylic acid] |  |  | 65% | > 60% |
| O=C(O)C1CN(Cc2ccncc2)c2c(-c3cccc(C(F)(F)F)c3)c(Cc3cccc4ccccc34)c(Cl)c(=O)n21 (stereo not drawn) [Compound 174, 6-chloro-7-(naphthalen-1-ylmethyl)-5-oxo-1-(pyridin-4-ylmethyl)-8-(3-(trifluoromethyl)phenyl)-1,2,3,5-tetrahydroimidazo[1,2-a]pyridine-3-carboxylic acid] | 11 to 30% | 23% |  |  |
| NC(=O)c1c(Cc2cccc3ccccc23)c(-c2cccc(C(F)(F)F)c2)c2n(c1=O)C(C(=O)O)CN(C1CCCC1)S2(=O)=O (stereo not drawn) [Compound 176, 7-carbamoyl-2-cyclopentyl-8-(naphthalen-1-ylmethyl)-6-oxo-9-(3-(trifluoromethyl)phenyl)-3,4-dihydro-2H,6H-pyrido[1,2-e][1,2,5]thiadiazine-4-carboxylic acid 1,1-dioxide] | > 60% | 98% |  |  |
| O=C(O)C1CSc2c(-c3cccc(C(F)(F)F)c3)c(C(F)(F)c3cccc4ccccc34)cc(=O)n21 (stereo not drawn) [Compound 073, 7-(difluoro(naphthalen-1-yl)methyl)-5-oxo-8-(3-(trifluoromethyl)phenyl)-2,3-dihydro-5H-thiazolo[3,2-a]pyridine-3-carboxylic acid] |  |  | 76% | > 60% |
| O=C(O)C1CN(Cc2cccnc2)c2c(-c3cccc(C(F)(F)F)c3)c(Cc3cccc4ccccc34)c(Cl)c(=O)n21 (stereo not drawn) [Compound 169, 6-chloro-7-(naphthalen-1-ylmethyl)-5-oxo-1-(pyridin-3-ylmethyl)-8-(3-(trifluoromethyl)phenyl)-1,2,3,5-tetrahydroimidazo[1,2-a]pyridine-3-carboxylic acid] | 31 to 60% | 33% |  |  |
| Cc1c(Cc2cccc3ccccc23)c(-c2cccc(C(F)(F)F)c2)c2n(c1=O)C(C(=O)O)CN(C)S2(=O)=O (stereo not drawn) [Compound 068, 2,7-dimethyl-8-(naphthalen-1-ylmethyl)-6-oxo-9-(3-(trifluoromethyl)phenyl)-3,4-dihydro-2H,6H-pyrido[1,2-e][1,2,5]thiadiazine-4-carboxylic acid 1,1-dioxide] |  |  | 74% | > 60% |
| O=C(O)C1CN(CCC2CCCCC2)c2c(-c3cccc(C(F)(F)F)c3)c(Cc3cccc4ccccc34)c(Cl)c(=O)n21 (stereo not drawn) [Compound 207, 6-chloro-1-(2-cyclohexylethyl)-7-(naphthalen-1-ylmethyl)-5-oxo-8-(3-(trifluoromethyl)phenyl)-1,2,3,5-tetrahydroimidazo[1,2-a]pyridine-3-carboxylic acid] | > 60% | 71% |  |  |
| CNC(=O)CCCN1CC(C(=O)O)n2c(c(-c3cccc(C(F)(F)F)c3)c(Cc3cccc4ccccc34)cc2=O)S1(=O)=O (stereo not drawn) [Compound 037, 2-(4-(methylamino)-4-oxobutyl)-8-(naphthalen-1-ylmethyl)-6-oxo-9-(3-(trifluoromethyl)phenyl)-3,4-dihydro-2H,6H-pyrido[1,2-e][1,2,5]thiadiazine-4-carboxylic acid 1,1-dioxide] |  |  | 36% | 31 to 60% |
| CNC(=O)C1CN(C)S(=O)(=O)c2c(-c3cccc(C(F)(F)F)c3)c(Cc3cccc4ccccc34)cc(=O)n21 (stereo not drawn) [Compound 031, N,2-dimethyl-8-(naphthalen-1-ylmethyl)-6-oxo-9-(3-(trifluoromethyl)phenyl)-3,4-dihydro-2H,6H-pyrido[1,2-e][1,2,5]thiadiazine-4-carboxamide 1,1-dioxide] |  |  | 18% | 11 to 30% |
| CCCCCN1CC(C(=O)O)n2c(c(-c3cccc(C(F)(F)F)c3)c(Cc3cccc4ccccc34)cc2=O)S1(=O)=O (single isomer, unassigned) [Compound 025a, 8-(naphthalen-1-ylmethyl)-6-oxo-2-pentyl-9-(3-(trifluoromethyl)phenyl)-3,4-dihydro-2H,6H-pyrido[1,2-e][1,2,5]thiadiazine-4-carboxylic acid 1,1-dioxide] |  |  | 50% | 31 to 60% |
| COc1ccc(CN2CC(C(=O)O)n3c2c(-c2cccc(C(F)(F)F)c2)c(Cc2cccc4ccccc24)c(Cl)c3=O)cc1 (stereo not drawn) [Compound 192, 6-chloro-1-(4-methoxybenzyl)-7-(naphthalen-1-ylmethyl)-5-oxo-8-(3-(trifluoromethyl)phenyl)-1,2,3,5-tetrahydroimidazo[1,2-a]pyridine-3-carboxylic acid] | 31 to 60% | 59% |  |  |
| CCCN1CC(C(=O)O)n2c(c(-c3cccc(C(F)(F)F)c3)c(Cc3cccc4ccccc34)c(Cl)c2=O)S1(=O)=O (stereo not drawn) [Compound 142, 7-chloro-8-(naphthalen-1-ylmethyl)-6-oxo-2-propyl-9-(3-(trifluoromethyl)phenyl)-3,4-dihydro-2H,6H-pyrido[1,2-e][1,2,5]thiadiazine-4-carboxylic acid 1,1-dioxide] | 31 to 60% | 40% |  |  |
| Cn1c(=O)c2c(ncn2CCCCCN2CC(C(=O)O)n3c(c(-c4cccc(C(F)(F)F)c4)c(Cc4cccc5ccccc45)cc3=O)S2(=O)=O)n(C)c1=O (stereo not drawn) [Compound 034, 2-(5-(1,3-dimethyl-2,6-dioxo-1,2,3,6-tetrahydro-7H-purin-7-yl)pentyl)-8-(naphthalen-1-ylmethyl)-6-oxo-9-(3-(trifluoromethyl)phenyl)-3,4-dihydro-2H,6H-pyrido[1,2-e][1,2,5]thiadiazine-4-carboxylic acid 1,1-dioxide] |  |  | 5% | -10 to 10% |
| Cn1c(=O)c2c(nc(CCCCCN3CC(C(=O)O)n4c(c(-c5cccc(C(F)(F)F)c5)c(Cc5cccc6ccccc56)cc4=O)S3(=O)=O)n2C)n(C)c1=O (stereo not drawn) [Compound 045, 8-(naphthalen-1-ylmethyl)-6-oxo-9-(3-(trifluoromethyl)phenyl)-2-(5-(1,3,7-trimethyl-2,6-dioxo-2,3,6,7-tetrahydro-1H-purin-8-yl)pentyl)-3,4-dihydro-2H,6H-pyrido[1,2-e][1,2,5]thiadiazine-4-carboxylic acid 1,1-dioxide] |  |  | 15% | 11 to 30% |
